# Measured values taken from ChEMBL document CHEMBL1153635, “Identification of [4-[4-(methylsulfonyl)phenyl]-6-(trifluoromethyl)-2-pyrimidinyl] amines and ethers as potent and selective cyclooxygenase-2 inhibitors” (Bioorg Med Chem Lett, 2009).
# The source made the active and inactive calls.
# How the values were obtained:
# in vivo = conditions: rat, brain / blood
# Description: Ratio of drug level in brain to blood in rat
# [1] = biological target: T1, Prostaglandin G/H synthase 2 (Homo sapiens, UniProt P35354); test: biochemical; type: cell-based, Sf9
# T1 sequence (P35354 whole entry): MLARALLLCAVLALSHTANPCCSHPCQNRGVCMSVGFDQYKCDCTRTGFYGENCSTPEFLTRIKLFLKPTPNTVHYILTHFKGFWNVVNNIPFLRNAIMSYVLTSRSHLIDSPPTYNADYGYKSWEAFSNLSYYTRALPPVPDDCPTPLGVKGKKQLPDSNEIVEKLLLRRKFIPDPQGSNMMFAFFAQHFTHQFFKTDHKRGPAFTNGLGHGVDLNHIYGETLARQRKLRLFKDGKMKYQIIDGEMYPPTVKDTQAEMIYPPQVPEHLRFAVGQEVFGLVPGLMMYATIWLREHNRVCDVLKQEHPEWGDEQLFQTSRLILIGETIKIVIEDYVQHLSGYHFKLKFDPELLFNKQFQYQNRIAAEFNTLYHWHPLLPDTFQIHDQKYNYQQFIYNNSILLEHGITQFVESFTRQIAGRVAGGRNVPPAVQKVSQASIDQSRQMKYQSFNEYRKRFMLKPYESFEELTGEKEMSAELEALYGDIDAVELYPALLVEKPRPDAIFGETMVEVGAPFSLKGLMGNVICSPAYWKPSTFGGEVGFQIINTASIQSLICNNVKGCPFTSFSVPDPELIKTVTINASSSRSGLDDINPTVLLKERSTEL
# [2] = Oral bioavailability in rat at 1 mg/kg; type: ADME, organism-based; conditions: in vivo
# Rattus norvegicus [3] = test: Antihyperalgesic activity against chronic constriction nerve injury-induced hyperalgesia in rat assessed as reversal of decrease in the paw withdrawal threshold at 5 mg/kg, po bid for 10 days measured on day 3 postdose; type: functional, organism-based; set-up: dose 5 mg/kg
# [4] = biological target: T1, Prostaglandin G/H synthase 2; type: tissue-based, Blood
# Description: Inhibition of COX2 in human whole blood assessed as inhibition of lipopolysaccharide-stimulated PGE2 production after 24 hrs by enzyme immunoassay
# Rattus norvegicus [5] = species: Rattus norvegicus; test: Analgesic activity against Freund's adjuvant-induced pain in rat model of acute inflammatory pain assessed as reversal of adjuvant hypersensitivity; type: functional
# [6] = Terminal half life in rat at 1 mg/kg/hr, iv; type: ADME, organism-based; set-up: route intravenous; conditions: in vivo, read-out: beta t1/2 (converted)
# Rattus norvegicus [7] = test: Antihyperalgesic activity against chronic constriction nerve injury-induced hyperalgesia in rat assessed as reversal of decrease in the paw withdrawal threshold at 5 mg/kg, po bid for 10 days measured on day 7 postdose; type: functional, organism-based; set-up: dose 5 mg/kg
# Rattus norvegicus [8] = test: Antihyperalgesic activity against chronic constriction nerve injury-induced hyperalgesia in rat assessed as reversal of decrease in the paw withdrawal threshold at 5 mg/kg, po bid for 10 days measured on day 10 postdose; type: functional, organism-based; set-up: dose 5 mg/kg
# [9] = Blood clearance in rat at 1 mg/kg/hr, iv; type: ADME, organism-based; set-up: route intravenous; conditions: whole blood
# [10] = Volume of distribution at steady state in rat at 1 mg/kg/hr, iv; type: ADME, organism-based; set-up: route intravenous; conditions: in vivo, read-out: Vdss
# COS = test: Selectivity ratio of IC50 for human COX1 to IC50 for human COX2 expressed in african green monkey COS cells; type: cell-based
# [11] = biological target: T2, Prostaglandin G/H synthase 1 (Homo sapiens, UniProt P23219); test: biochemical; type: cell-based, COS
# [12] = biological target: T1, Prostaglandin G/H synthase 2; type: cell-based, COS
# [13] = biological target: T2, Prostaglandin G/H synthase 1; type: tissue-based, Blood
# Homo sapiens = species: Homo sapiens; test: Selectivity ratio of IC50 for COX1 to IC50 for COX2 in human whole blood; type: tissue-based
# [14] = Oral bioavailability in rat at 5 mg/kg; type: ADME, organism-based; conditions: in vivo
# [15] = Selectivity ratio of IC50 for human COX1 to IC50 for human COX2 expressed in baculovirus-infected SF9 cells
# [16] = biological target: T2, Prostaglandin G/H synthase 1; test: biochemical; type: cell-based, Sf9
# T2 sequence (P23219 whole entry): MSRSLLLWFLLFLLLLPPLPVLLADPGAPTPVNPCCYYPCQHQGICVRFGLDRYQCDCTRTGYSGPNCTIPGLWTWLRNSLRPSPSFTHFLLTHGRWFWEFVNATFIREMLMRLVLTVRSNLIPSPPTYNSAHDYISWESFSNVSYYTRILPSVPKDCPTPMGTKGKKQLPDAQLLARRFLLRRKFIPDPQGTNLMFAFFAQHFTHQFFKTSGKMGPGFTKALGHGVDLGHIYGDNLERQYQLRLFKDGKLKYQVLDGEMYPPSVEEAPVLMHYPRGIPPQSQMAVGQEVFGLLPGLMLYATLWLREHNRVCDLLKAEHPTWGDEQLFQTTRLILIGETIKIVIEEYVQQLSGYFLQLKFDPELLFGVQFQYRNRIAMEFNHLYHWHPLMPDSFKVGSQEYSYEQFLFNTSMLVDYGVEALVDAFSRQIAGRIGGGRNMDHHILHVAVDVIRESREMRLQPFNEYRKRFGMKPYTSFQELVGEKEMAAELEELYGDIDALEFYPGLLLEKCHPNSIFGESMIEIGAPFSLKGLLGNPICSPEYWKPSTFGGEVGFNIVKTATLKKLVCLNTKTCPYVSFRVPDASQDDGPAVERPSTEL
Structure (SMILES),IC50 [11],IC50 [12],Ratio IC50 (COS),other results
CS(=O)(=O)c1ccc(C2=C(c3ccccc3)C(=O)OC2)cc1 [ROFECOXIB],–,–,–,Kp (in vivo): 0.8
CCCCOc1nc(-c2ccc(S(C)(=O)=O)cc2)cc(C(F)(F)F)n1,–,–,–,IC50 [1]: 21.5 nM; bioavailability [2]: 84%; Activity (Rattus norvegicus [3]): Active; Kp (in vivo): 3.2; IC50 [4]: 158 nM; ED50 (Rattus norvegicus [5]): 2.1 mg/kg; half-life [6]: 252 min; Activity (Rattus norvegicus [7]): Active; Activity (Rattus norvegicus [8]): Active; clearance [9]: 24 mL/min/kg; Vd [10]: 5.7 L/kg
CS(=O)(=O)c1ccc(-c2cc(C(F)(F)F)nc(NC3CCCCC3)n2)cc1,> 58.4 µM,–,> 117000,IC50 [13]: 11.6 µM; IC50 [4]: 62 nM; Ratio IC50 (Homo sapiens): 187
CC(C)CNc1nc(-c2ccc(S(C)(=O)=O)cc2)cc(C(F)(F)F)n1,> 66.2 µM,2 nM,> 33100,IC50 [1]: 12 nM; IC50 [13]: 62 µM; IC50 [4]: 206 nM; ED50 (Rattus norvegicus [5]): 0.5 mg/kg; half-life [6]: 540 min; bioavailability [14]: 107%; Ratio IC50 [15]: > 8330; IC50 [16]: > 100 µM; clearance [9]: 10 mL/min/kg; Vd [10]: 6 L/kg; Ratio IC50 (Homo sapiens): 301
CS(=O)(=O)c1ccc(-c2cc(C(F)(F)F)nc(Nc3ccc(F)cc3)n2)cc1,> 65.8 µM,7.2 nM,> 9140,–
CCCNc1nc(-c2ccc(S(C)(=O)=O)cc2)cc(C(F)(F)F)n1,> 100 µM,5 nM,> 2000,–
CS(=O)(=O)c1ccc(-c2cc(C(F)(F)F)nc(OC3CCCCCCC3)n2)cc1,–,–,–,IC50 [1]: < 10 nM; Ratio IC50 [15]: > 300; IC50 [16]: 3 µM
Cc1ccc(N(C)c2nc(-c3ccc(S(C)(=O)=O)cc3)cc(C(F)(F)F)n2)cc1,> 74.2 µM,3 nM,> 24700,–
CS(=O)(=O)c1ccc(-c2cc(C(F)(F)F)nc(NCC3CCCCC3)n2)cc1,> 100 µM,29 nM,> 3450,–
CS(=O)(=O)c1ccc(-c2cc(C(=O)O)nc(NC3CCCCC3)n2)cc1,> 100 µM,> 10000 nM,inactive,–
CS(=O)(=O)c1ccc(-c2cc(C(F)(F)F)nc(OC3CCCCCC3)n2)cc1,–,–,–,IC50 [1]: < 10 nM; Ratio IC50 [15]: > 192; IC50 [16]: 1.92 µM
Cc1cccc(Oc2nc(-c3ccc(S(C)(=O)=O)cc3)cc(C(F)(F)F)n2)c1,–,–,–,IC50 [1]: < 10 nM; Ratio IC50 [15]: > 436; IC50 [16]: 4.36 µM
CCCCNc1nc(-c2ccc(S(C)(=O)=O)cc2)cc(C(F)(F)F)n1,> 100 µM,1.3 nM,> 76900,IC50 [13]: > 96.2 µM; IC50 [4]: 70 nM; Ratio IC50 (Homo sapiens): > 1370
CS(=O)(=O)c1ccc(-c2cc(C(F)(F)F)nc(NCc3ccccc3)n2)cc1,> 100 µM,–,> 400000,IC50 [13]: 39.3 µM; IC50 [4]: 8 nM; Ratio IC50 (Homo sapiens): 4910
CS(=O)(=O)c1ccc(-c2cc(C(F)(F)F)nc(OC3CCCC3)n2)cc1,–,–,–,IC50 [1]: < 10 nM; Ratio IC50 [15]: > 404; IC50 [16]: 4.04 µM
Cc1cc(-c2ccc(S(C)(=O)=O)cc2)nc(NC2CCCCC2)n1,> 100 µM,1680 nM,> 59,–
CS(=O)(=O)c1ccc(-c2cc(C(F)(F)F)nc(OCC3CCCCCC3)n2)cc1,–,–,–,IC50 [1]: 1030 nM; Ratio IC50 [15]: inactive
CS(=O)(=O)c1ccc(-c2cc(C(F)(F)F)nc(OCC3CCCCC3)n2)cc1,–,–,–,IC50 [1]: 45 nM; Ratio IC50 [15]: > 2220; IC50 [16]: > 100 µM
CC(C)(C)Oc1nc(-c2ccc(S(C)(=O)=O)cc2)cc(C(F)(F)F)n1,–,–,–,IC50 [1]: 33 nM; Ratio IC50 [15]: 1580; IC50 [16]: 52 µM
CS(=O)(=O)c1ccc(-c2cc(C(F)(F)F)nc(NCC3CCOCC3)n2)cc1,100 µM,5 nM,20000,–
CS(=O)(=O)c1ccc(-c2cc(C(F)(F)F)nc(NC3CCOCC3)n2)cc1,> 91.6 µM,–,> 5090,–
CC(C)Oc1nc(-c2ccc(S(C)(=O)=O)cc2)cc(C(F)(F)F)n1,–,–,–,IC50 [1]: 63 nM; Ratio IC50 [15]: 834; IC50 [16]: 52.6 µM
CS(=O)(=O)c1ccc(-c2cc(C(F)(F)F)nc(OC3CCC3)n2)cc1,–,–,–,IC50 [1]: < 10 nM; Ratio IC50 [15]: > 1900; IC50 [16]: 19 µM
CS(=O)(=O)c1ccc(-c2cc(C(F)(F)F)nc(N)n2)cc1,> 100 µM,272 nM,> 368,–
Cc1ccc(Oc2nc(-c3ccc(S(C)(=O)=O)cc3)cc(C(F)(F)F)n2)cc1,–,–,–,Ratio IC50 [15]: > 375
Cc1ccc(-c2ncc(Cl)cc2-c2ccc(S(C)(=O)=O)cc2)cn1 [ETORICOXIB],–,–,–,IC50 [13]: > 100 µM

# Now from value to compound, other results behind:
IC50 [11],IC50 [12],Structure (SMILES),Ratio IC50 (COS),other results
0.7 µM,< 1.4 nM,CCCCNc1nc(-c2ccc(S(N)(=O)=O)cc2)cc(C(F)(F)F)n1,> 500,–
6.32 µM,16 nM,CS(=O)(=O)c1ccc(-c2cc(OCC(F)(F)F)nc(NC3CCCCC3)n2)cc1,395,–
> 100 µM,> 10000 nM,CS(=O)(=O)c1ccc(-c2cc(C(F)(F)F)nc(NC3CCNCC3)n2)cc1,inactive,–
> 100 µM,> 10000 nM,Cc1c(-c2ccc(S(C)(=O)=O)cc2)nc(NC2CCCCC2)nc1C(F)(F)F,inactive,–
> 100 µM,> 10000 nM,CS(=O)(=O)c1ccc(-c2cc(C(N)=O)nc(NC3CCCCC3)n2)cc1,inactive,–
> 100 µM,11 nM,Cc1ccc(Nc2nc(-c3ccc(S(C)(=O)=O)cc3)cc(C(F)(F)F)n2)cc1,> 9090,–
> 100 µM,> 10000 nM,CS(=O)(=O)c1ccc(-c2ccnc(NC3CCCCC3)n2)cc1,inactive,–
0.167 µM,2.4 nM,NS(=O)(=O)c1ccc(-c2cc(C(F)(F)F)nc(NC3CCCCC3)n2)cc1,69.5,–
> 100 µM,> 10000 nM,Cc1cnc(NC2CCCCC2)nc1-c1ccc(S(C)(=O)=O)cc1,inactive,–
> 100 µM,> 10000 nM,CS(=O)(=O)c1ccc(-c2cc(N)nc(NC3CCCCC3)n2)cc1,inactive,–
> 100 µM,< 10 nM,Cc1ccc(CNc2nc(-c3ccc(S(C)(=O)=O)cc3)cc(C(F)(F)F)n2)cc1,> 10000,–
> 100 µM,5.6 nM,CS(=O)(=O)c1ccc(-c2cc(C(F)(F)F)nc(Nc3ccccc3)n2)cc1,> 17900,–
